Test results published in paper PMC2994776 (BMC Biochemistry, 2010).
Ends that are not written are not given here.

Tests used:
[1] = tested on: B9-23 - reactive T-cell clones; conditions: type 1 diabetes; cited from earlier work
DnaK = molecular target: T1, DnaK (Escherichia coli, UniProt P0A6Y8); assay: Fluid phase competition binding assay with acrylodan-labeled NR peptide (a-NR); design: species or system bacterial; conditions: read-out: Apparent dissociation equilibrium constant (K'd)
T1 construct: made in house
Description: Determination of dissociation equilibrium constants
Peptide NR was labeled with the environmentally sensitive fluorophore acrylodan as described. […] After reaching equilibrium (~1.5 h), emission spectra were recorded from 400 nm to 600 nm (bandpass 4 nm) with a Perkin-Elmer spectrofluorimeter LS50B equipped with a stirrer and a thermostatically controlled cuvette holder. The excitation wavelength was set at 370 nm (bandpass 4 nm). Measurements were performed in a volume of 800 μl in 25 mM Hepes/KOH, 100 mM KCl, 10 mM MgCl2, pH 7.4 containing 1 mM DTT and 1 mM ADP-Pi at 25°C.
(1) ΔF=ΔFmaxxP/(P+Kdx(1+L/K'd))

T1 sequence (P0A6Y8 whole entry): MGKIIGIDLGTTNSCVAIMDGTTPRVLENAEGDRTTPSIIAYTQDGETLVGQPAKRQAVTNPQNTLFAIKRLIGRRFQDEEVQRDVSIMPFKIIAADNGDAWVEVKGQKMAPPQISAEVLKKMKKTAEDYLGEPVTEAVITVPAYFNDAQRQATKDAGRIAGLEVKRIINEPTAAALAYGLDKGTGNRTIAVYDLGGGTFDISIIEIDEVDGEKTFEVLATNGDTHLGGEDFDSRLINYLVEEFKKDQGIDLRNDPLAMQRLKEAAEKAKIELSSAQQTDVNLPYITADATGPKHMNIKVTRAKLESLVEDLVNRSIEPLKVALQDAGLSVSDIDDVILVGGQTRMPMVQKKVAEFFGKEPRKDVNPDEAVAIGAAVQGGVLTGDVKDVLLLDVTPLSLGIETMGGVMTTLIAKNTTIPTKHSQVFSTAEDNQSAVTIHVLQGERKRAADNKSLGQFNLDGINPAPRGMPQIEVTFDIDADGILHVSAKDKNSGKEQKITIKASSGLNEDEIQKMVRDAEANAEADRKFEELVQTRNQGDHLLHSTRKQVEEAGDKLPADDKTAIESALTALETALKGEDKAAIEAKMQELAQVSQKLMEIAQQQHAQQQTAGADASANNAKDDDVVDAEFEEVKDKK

Row | Substance | immunodominance in autoimmune T-cell reactivity (in words) [1] | Kd (DnaK) [µM]
1 | B9-23: insulin peptide identified as an immunodominant epitope of autoimmune T-cell reactivity in type 1 diabetes (SHLVEALYLVCGERG; ends and bridges not checked; UniProt P01308 33-47, looked up, fragment) [Peptide B9-23] | immunodominant epitope of autoimmune T-cell reactivity in type 1 diabetes | –
2 | LVEALYLVCGERG [Peptide B11-23] | – | 2.2 ± 0.4
3 | SHAMAPVLYLQDK [Control peptide (sigma32 aa192-204)] | – | 0.5 ± 0.1
4 | VCGERGFFYTPKT [Peptide B18-30] | – | 51.9 ± 12.8
